Assay results: patent US12121614B2, “Delayed release composition for peroral administration” (VICORE PHARMA AB, priority 2020, dated 2024)

Test: Dissolution studies of C21 sodium salt in buffers of different pH
Assay type: physicochemical
Conditions: Zwitterion formed at intermediated pHs; conclusion from experiments (A)-(E)
Method: 50.7 mg of C21 sodium salt (Ardena, Riga, Latvia) was added to 900 mL of 0.09M carbonate buffer (pH 8.95) at a temperature of 37±3° C. with stirring. […] After 15 minutes of stirring, 2M acetic acid solution was added dropwise to provide a pH of 4.52. Evolution CO2 was noted. […] After additional stirring for a further 1.5 hours, 1M NaOH was added to increase pH to 6.8.
51.2 mg of C21 sodium salt was added to 900 mL of acetate buffer (pH 4.4) at the same temperature with stirring. […] After stirring for 1 hour, 1M NaOH solution was added dropwise to increase the pH to 7.2.
53.2 mg of C21 sodium salt was added to 900 mL 0.1M of HCl buffer (pH 1.0) at the same temperature with stirring. […] After 20 minutes of stirring, 1M NaOH solution was added dropwise to increase the pH to 4.5.
51.0 mg of C21 sodium salt was added to 900 mL of 0.1M citrate buffer (pH 4.42) at the same temperature with stirring. The added compound formed a thin slurry. It seemed that nothing had dissolved.
50.8 mg of C21 sodium salt was added to 900 mL of an acetate buffer (pH 4.49) at the same temperature. […] After stirring for 1 hour, a 1M NaOH solution was added dropwise to increase the pH to 6.8.

- solubility of C21's Zwitterion: insoluble
Compound: CCCCOC(=O)NS(=O)(=O)c1sc(CC(C)C)cc1-c1ccc(Cn2ccnc2)cc1 [C21, N-butyloxycarbonyl-3-(4-imidazol-1-ylmethylphenyl)-5-iso-butylthiophene-2-sulfonamide]
